Assay results as given in PubChem BioAssay (NCI).
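Compound exposure: 48 hours, 5 concentrations, 96-well plates. Definition used: TGI = concentration required for complete inhibition of growth.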

Tests used:
Assay in all cases: inhibition of tumour cell growth, NCI panel, 48 h
BT-549 breast = tested on: BT-549 breast
CAKI-1 renal = tested on: CAKI-1 renal
HOP-62 NSCLC = tested on: HOP-62 NSCLC
HOP-92 NSCLC = tested on: HOP-92 NSCLC
HS 578T breast = tested on: HS 578T breast
K-562 leukemia = tested on: K-562 leukemia
LOX IMVI melanoma = tested on: LOX IMVI melanoma
MCF7 breast = tested on: MCF7 breast
MDA-MB-231 breast = tested on: MDA-MB-231 breast
MDA-N = tested on: MDA-N
RPMI-8226 leukemia = tested on: RPMI-8226 leukemia
RXF 393 renal = tested on: RXF 393 renal
SF-539 CNS = tested on: SF-539 CNS
SK-MEL-2 melanoma = tested on: SK-MEL-2 melanoma
SK-MEL-5 melanoma = tested on: SK-MEL-5 melanoma
SK-OV-3 ovarian = tested on: SK-OV-3 ovarian
SN12C renal = tested on: SN12C renal
SR leukemia = tested on: SR leukemia
T-47D breast = tested on: T-47D breast
U251 CNS = tested on: U251 CNS

SMILES	TGI (BT-549 breast) [µM]	TGI (CAKI-1 renal) [µM]	TGI (HOP-62 NSCLC) [µM]	TGI (HOP-92 NSCLC) [µM]	TGI (HS 578T breast) [µM]	TGI (K-562 leukemia) [µM]	TGI (LOX IMVI melanoma) [µM]	TGI (MCF7 breast) [µM]	TGI (MDA-MB-231 breast) [µM]	TGI (MDA-N) [µM]	TGI (RPMI-8226 leukemia) [µM]	TGI (RXF 393 renal) [µM]	TGI (SF-539 CNS) [µM]	TGI (SK-MEL-2 melanoma) [µM]	TGI (SK-MEL-5 melanoma) [µM]	TGI (SK-OV-3 ovarian) [µM]	TGI (SN12C renal) [µM]	TGI (SR leukemia) [µM]	TGI (T-47D breast) [µM]	TGI (U251 CNS) [µM]
COC(=O)[C@]12CC[C@H]3CC[C@H]([C@H]31)[C@H](c1ccccc1)N2	34.3	41.4	33.3	30.3	49.8	53.4	32.1	31.2	30.6	34.9	47.9	30.9	30.6	28.8	27.9	77.7	29.5	38.8	50.3	31.4
c1ccc(C2=NCCN2)c(C2=NCCN2)c1	> 100	> 100	> 100	> 100	> 100	> 100	> 100	> 100	> 100	> 100	> 100	> 100	> 100	> 100	> 100	> 100	> 100	> 100	> 100	> 100
COc1ccc(N2C(=O)[C@H]3[C@H]4CC(C(C)(C)C)CC[C@H]4c4c(n(C)c5ccccc45)[C@H]3C2=O)cc1 (stereo not given in full)	> 100	> 100	> 5.62	> 100	> 86	> 100	> 100	> 46.4	> 100	> 100	> 100	> 100	> 46.4	> 100	> 100	> 100	> 56.2	> 100	> 100	> 56.2
O=C(N/N=C/c1c(-c2ccccc2)no[n+]1[O-])N1CCOCC1	> 100	> 100	> 100	> 100	> 100	> 100	> 100	> 100	> 100	> 100	> 100	> 100	> 100	> 100	> 100	> 100	> 100	45.1	> 100	> 100
CCCCCCc1ccc(C(=O)NO)cc1	> 100	84.3	> 100	> 100	> 100	> 100	76.9	> 100	> 100	> 100	56.8	> 100	> 100	> 100	> 100	> 100	64.5	39.2	82.9	> 100
CN(C)CCCn1c(Cc2ccc(Cl)cc2)nc2cc(C(F)(F)F)ccc21	32.4	27.3	28.8	22.9	33.6	> 32.5	29.7	27.6	26.5	25.4	> 100	22.7	32.2	31	32.5	28.2	29.4	> 100	27.2	28.6
CCN(CC)c1ccc2cc(C(N)=S)c(=N)oc2c1	> 100	> 100	> 100	> 100	> 100	> 100	> 100	> 100	> 100	> 100	> 100	> 100	> 100	> 100	> 100	> 100	> 100	> 100	> 100	> 100
Nc1nc(N)c2cc(-c3ccccc3)cnc2n1	30.2	29.5	40.9	30.1	46.2	17.7	37.6	44.1	20.4	25.4	48.9	22.5	31.1	> 100	27.3	> 100	29.1	21.2	> 100	42
O=c1[nH]/c(=C/c2ccc(OCc3ccccc3)cn2)c(=O)[nH]/c1=C/c1ccc(F)cc1	> 58.5	> 100	> 35.5	> 37.7	15.7	> 36.4	> 100	> 100	> 51.3	0.259	10.8	1.95	19.3	> 52.2	> 100	> 37.8	> 50.3	1.29	> 55.6	> 35.7
COC(=O)c1ccccc1C1CN=NC12Cc1ccccc1C2=O (stereo not given)	> 100	> 100	> 100	> 100	> 100	> 100	> 100	> 100	> 100	> 100	> 100	> 100	> 100	> 100	> 100	> 100	> 100	> 100	> 100	> 100
CC1(C)CCc2c(c(N=Nc3ccc(S(N)(=O)=O)cc3)c3ccccc3c2O)O1	29.1	62.1	20.7	37.5	> 100	> 100	21.3	33.1	8.77	9.72	> 100	24.6	22.2	83.8	8.1	16.2	23.2	58.3	49.3	20.9
O=C(c1c(F)c(F)c(F)c(F)c1F)N1CCN(C(=O)c2c(F)c(F)c(F)c(F)c2F)C1=S	27.8	6.89	29.1	12.9	18.9	> 100	6.57	21.1	14.4	6.54	> 100	9.27	24	7.33	19.6	21.6	24.5	> 100	24.2	22.2
Cc1cc(C)nc(NS(=O)(=O)c2ccc(NNc3c4ccccc4nc4c(C(=O)Nc5ccc(S(N)(=O)=O)cc5)cccc34)cc2)n1	> 100	> 100	> 100	> 100	> 100	> 100	> 100	> 100	89	> 100	> 100	> 100	> 100	46.7	> 100	> 100	> 100	73.3	> 100	70.3
COc1cc(/C=C2\N=C(c3ccccc3)N(c3nc4cc(C)c(C)cc4s3)C2=O)ccc1O	> 100	> 100	> 100	> 100	> 100	> 100	> 100	39.1	> 100	37.7	> 100	82.2	60.9	> 100	> 100	> 100	78.9	57.8	> 100	> 100
CC1=CC[C@H](C(C)C)C(C(O)[C@@H](C)O[Si](c2ccccc2)(c2ccccc2)C(C)(C)C)C1=O (stereo not given in full)	37.5	36.2	47.6	37.9	67	> 100	45.7	44.2	32.4	53	48	30.8	44.1	32	33.7	79.7	37.9	> 100	46.1	31.8
Oc1cc2c3c(c1)CCCN3CCC2	> 10	> 10	> 10	> 10	> 10	> 10	> 10	> 10	> 10	> 10	> 10	> 10	> 10	> 10	> 10	> 10	> 10	> 10	> 10	> 10
